Experiment: water solubility of α-diazocarbonyl substrates under the conditions of the oligonucleotide modification reaction
Assay type: physicochemical
Conditions: aqueous reaction mixture, 100 mM MES buffer, pH 6.0, 50 mM α-diazocarbonyl compound
From the text: A number of a-diazocarbonyl substrates were screened as potential candidates for the target reaction of oligonucleotide modification (Table 4). […] Increasing the bulkiness of the ester moiety appeared to have a negative effect on the yields of modified oligonucleotide as for entry 2 the efficacy of modification was reduced twice in comparison to the methyl ester counterpart (entry 1) and with the compound from entry 7 only trace amounts of modified oligonucleotide were isolated.
General procedure for Rh2(OAc)4-catalyzed oligonucleotide modification using a-diazocarbonyl compounds. Typically […] reaction mixtures containing 5 mM oligonucleotide, […] Rh2(OAc)4 and 50 mM a-diazocarbonyl compound in 100 mM MES buffer, pH 6.0 were kept at 20 °C for 24-72 h. Analysis of the reaction products was carried out by micropreparative HPLC-separation of 5-ml aliquots of the reaction mixtures using method A. The collected peak fractions were further assessed by ESI-MS or MALDI TOF.

Water solubility under the conditions of the analysis, sufficiently water-soluble:
C#CCN1CCN(CCOCCOCCOCCN2CCN(Cc3ccc(C(=[N+]=[N-])C(=O)OC)cc3)CC2)CC1 [Dz-2, Methyl2-diazo-2-(4-((4-(2-(2-(2-(2-(4-(prop-2-yn-1-yl)piperazin-1-yl)ethoxy)ethoxy)ethoxy)ethyl)piperazin-1-yl)methyl)phenyl)acetate]
CCOC(=O)C(=[N+]=[N-])c1ccc(CN(C)C)cc1 [entry 2]
COC(=O)C(=[N+]=[N-])c1ccc(CN(C)C)cc1 [Dz-1, Methyl 2-diazo-2-(4-((dimethylamino)methyl)phenyl)acetate]

Source: patent EP2689847A1, “Methods for catalytic alkylation of nucleic acids” (Universität Basel, priority 2012, dated 2014)
